Measured values published in US11613538B2, “Method of inhibiting or reducing a viral infection” (PTC Therapeutics, Inc., priority 2009, dated 2023).

Tested on: hypoxia-induced VEGF production in HeLa cells
Assay: cells
Type: cell-based, human
Details: Homo sapiens, HeLa

Row | Structure (SMILES) | EC50 [nM]
1 | CCOC(=O)N1CCc2c([nH]c3ccc(Cl)cc23)C1c1ccc(OCC(O)CO)cc1 (stereo not shown) [Compound 1000] | 8 to 40
2 | CC(C)OC(=O)N1CCc2c([nH]c3ccc(Cl)cc23)C1c1ccc(OCCCO)cc1 (stereo not shown) [Compound 1074] | < 8
3 | COc1ccc(C(=O)c2sc(N3CCc4c([nH]c5ccc(Cl)cc45)C3c3ccc(OC)cc3)nc2-c2ccccc2)cc1 (stereo not shown) [Compound 1601] | < 8
4 | COc1ccc(C2c3[nH]c4ccc(Cl)cc4c3CCN2c2nc(-c3ccsc3)cs2)cc1 (stereo not shown) [Compound 1595] | 8 to 40
5 | CC#CCOC(=O)N1CCc2c([nH]c3ccc(Cl)cc23)C1c1ccc(OC)c(F)c1 (stereo not shown) [Compound 1232] | 40 to 200
6 | COc1ccc(C2NCCc3c2[nH]c2ccc([S+](C)[O-])cc32)cc1 (stereo not shown) [Compound 1495] | > 1000
7 | COc1ccc([C@H]2c3[nH]c4ccc(Cl)cc4c3CCN2C(=O)OCC2CC2)cc1 [Compound 1371] | 8 to 40
8 | O=C(Oc1ccc(Cl)cc1)N1CCc2c([nH]c3ccc(Cl)cc23)C1c1ccc(OC(CO)CO)cc1 (stereo not shown) [Compound 1231] | 8 to 40
9 | CCOC(=O)N1CCc2c([nH]c3ccc(Cl)cc23)C1c1ccc(OCC(CO)CO)cc1 (stereo not shown) [Compound 1208] | 8 to 40
10 | CC#CCOC(=O)N1CCc2c([nH]c3ccc(Cl)cc23)C1c1ccc(OCC[C@H]2COC(C)(C)O2)cc1 (stereo partly shown) [Compound 1166] | < 8
11 | COc1ccc(C2c3[nH]c4ccc(Cl)cc4c3CCN2C(=O)OCC(C)C)cn1 (stereo not shown) [Compound 1481] | 8 to 40
12 | CCOC(=O)N1CCc2c([nH]c3ccc(Cl)cc23)[C@@H]1c1ccc(OCCCNCC2CCCO2)cc1 (stereo partly shown) [Compound 1610] | 40 to 200
13 | [H]/N=c1\scnn1CCOc1ccc(C2c3[nH]c4ccc(Cl)cc4c3CCN2C(=O)OCC)cc1 (stereo not shown) [Compound 1400] | < 8
14 | CCOC(=O)N1CCc2c([nH]c3ccc(Cl)cc23)[C@@H]1c1ccc(OCCC(O)CNC(=O)c2ccccn2)cc1 (stereo partly shown) [Compound 1618] | < 8
15 | Clc1ccc2[nH]c3c(c2c1)CCN(c1ncccn1)[C@H]3c1ccc(OC[C@@H]2CO2)cc1 [Compound 1245] | 8 to 40
16 | CCOC(=O)N1CCc2c([nH]c3ccc(Cl)cc23)C1c1ccc(OCC(=O)N2CCN(CCOC)CC2)cc1 (stereo not shown) [Compound 1003] | 8 to 40
17 | COc1ccc(-c2csc(N3CCc4c([nH]c5ccc(Cl)cc45)C3c3ccc(OC)cc3)n2)cc1 (stereo not shown) [Compound 1591] | < 8
18 | CCOC(=O)N1CCc2c([nH]c3ccc([S+](C)[O-])cc23)C1c1ccc(OC)cc1 (stereo not shown) [Compound 1488] | > 1000
19 | [H]/N=c1\scnn1CCOc1ccc(C2c3[nH]c4ccc(Cl)cc4c3CCN2C(=O)OCC#CC)cc1 (stereo not shown) [Compound 1403] | < 8
20 | CC(C)OC(=O)N1CCc2c([nH]c3ccc(Br)cc23)C1c1ccc(OCC[C@H](O)CO)cc1 (stereo partly shown) [Compound 1346] | < 8
21 | O=C(Oc1ccc(F)cc1)N1CCc2c([nH]c3ccc(Cl)cc23)C1c1cccc(OCCCN2CCOCC2)c1 (stereo not shown) [Compound 1115] | 8 to 40
22 | O=C(COc1ccc(C2c3[nH]c4ccc(Cl)cc4c3CCN2C(=O)Oc2ccc(F)cc2)cc1)N1CCOCC1 (stereo not shown) [Compound 1023] | 8 to 40
23 | CCOC(=O)N1CCc2c([nH]c3ccc(Cl)cc23)[C@@H]1c1ccc(OCCC(O)Cn2ccnn2)cc1 (stereo partly shown) [Compound 1274] | < 8
24 | CCOC(=O)N1CCc2c([nH]c3ccc(Cl)cc23)C1c1ccc(OCC(=O)NCCO)cc1 (stereo not shown) [Compound 1013] | 8 to 40
25 | N#CCOc1ccc(C2NCCc3c2[nH]c2ccc(Cl)cc32)cc1 (stereo not shown) [Compound 1550] | 200 to 1000

Row | Structure (SMILES) | EC50 [nM]
26 | COCCN1CCN(C(=O)COc2ccc(C3c4[nH]c5ccc(Cl)cc5c4CCN3C(=O)Oc3ccc(OC)cc3)cc2)CC1 (stereo not shown) [Compound 1025] | 40 to 200
27 | COc1ccc(C2c3[nH]c4ccc(S(C)(=O)=O)cc4c3CCN2C(=S)Oc2ccc(F)cc2)cc1 (stereo not shown) [Compound 1500] | > 1000
28 | CCOC(=O)N1CCc2c([nH]c3ccc(Cl)cc23)[C@@H]1c1ccc(OC[C@H](O)CO)cc1 [Compound 1221] | < 8
29 | CC#CCOC(=O)N1CCc2c([nH]c3c(C)cccc23)C1c1ccc(OC)cc1 (stereo not shown) [Compound 1430] | > 1000
30 | O=C(OCc1ccccc1)N1CCc2c([nH]c3ccc(Cl)cc23)C1c1ccc(OCCCN2CCOCC2)cc1 (stereo not shown) [Compound 1106] | < 8
31 | CN1CCN(Cc2cnc(Oc3ccc([C@H]4c5[nH]c6ccc(Cl)cc6c5CCN4C(=O)Oc4ccc(Cl)cc4)cc3)s2)CC1 [Compound 1661] | < 8
32 | CC(C)COC(=O)N1CCc2c([nH]c3ccc(Cl)cc23)C1c1ccc(OCCOc2cc(N)n[nH]2)cc1 (stereo not shown) [Compound 1406] | 40 to 200
33 | CC(CO)(CO)COc1ccc([C@H]2c3[nH]c4ccc(Cl)cc4c3CCN2C(=O)OC2CCCC2)cc1 [Compound 1321] | < 8
34 | CCOC(=O)CNC(=O)c1cccc(C2c3[nH]c4ccc(Cl)cc4c3CCN2C(=O)OCC)c1 (stereo not shown) [Compound 1387] | 40 to 200
35 | CCC(CO)(CO)COc1ccc(C2c3[nH]c4ccc(Br)cc4c3CCN2C(=O)OC(C)C)cc1 (stereo not shown) [Compound 1355] | < 8
36 | COCCOC(=O)N1CCc2c([nH]c3ccc(Cl)cc23)C1c1ccc(OCCCn2ccnn2)cc1 (stereo not shown) [Compound 1083] | 8 to 40
37 | CCOC(=O)N1CCc2c([nH]c3ccc(Cl)cc23)C1c1ccc(OCC(O)CNS(=O)(=O)C(C)C)cc1 (stereo not shown) [Compound 1474] | 8 to 40
38 | CCC(C)OC(=O)N1CCc2c([nH]c3ccc([S+](C)[O-])cc23)C1c1ccc(OC)cc1 (stereo not shown) [Compound 1493] | > 1000
39 | O=C(Oc1ccc(Cl)cc1)N1CCc2c([nH]c3ccc(Cl)cc23)C1c1ccc(OCC[C@H](O)CO)cc1 (stereo partly shown) [Compound 1172] | < 8
40 | CCOC(=O)N1CCc2c([nH]c3ccc(Cl)cc23)C1c1ccc(OCC(O)Cn2nccn2)cc1 (stereo not shown) [Compound 1073] | < 8
41 | CCOC(=O)N1CCc2c([nH]c3ccc(Cl)cc23)C1c1cccc(C(=O)N(C)CC(=O)O)c1 (stereo not shown) [Compound 1389] | > 1000
42 | CCCOC(=O)N1CCc2c([nH]c3ccc(Cl)cc23)C1c1ccc(OCCCN2CCOCC2)cc1 (stereo not shown) [Compound 1105] | < 8
43 | CCOC(=O)N1CCc2c([nH]c3ccc(Cl)cc23)[C@@H]1c1ccc(OCCC(O)CN(CCO)CCO)cc1 (stereo partly shown) [Compound 1273] | 8 to 40
44 | COc1ccc(C2c3[nH]c4ccc(Cl)cc4c3CCN2c2nc(-c3ccncc3)cs2)cc1 (stereo not shown) [Compound 1594] | 40 to 200
45 | O=C(OCC1CC1)N1CCc2c([nH]c3ccc(Cl)cc23)[C@@H]1c1ccc(O)cc1 [Compound 1369] | 8 to 40
46 | COCCOC(=O)N1CCc2c([nH]c3ccc(Cl)cc23)C1c1ccc(OCCn2nc(N)cc2C)cc1 (stereo not shown) [Compound 1437] | 8 to 40
47 | CC1(C)OC[C@H](CCOc2ccc([C@H]3c4[nH]c5ccc(Cl)cc5c4CCN3C(=O)OCC3CCC3)cc2)O1 [Compound 1315] | < 8
48 | COC(=O)N1CCc2c([nH]c3ccc(Cl)cc23)C1c1ccc(OCCCN2CCOCC2)cc1 (stereo not shown) [Compound 1100] | 8 to 40
49 | COc1ccc(C2c3[nH]c4ccc(Cl)cc4c3CCN2C(=O)C(=O)NC2CCCC2)cc1 (stereo not shown) [Compound 1710] | 40 to 200
50 | CC(C)COC(=O)N1CCc2c([nH]c3ccc(Br)cc23)C1c1ccc(OCC[C@H](O)CO)cc1 (stereo partly shown) [Compound 1347] | < 8

Row | Structure (SMILES) | EC50 [nM]
51 | COc1ccc(C2c3[nH]c4ccc(Cl)cc4c3CCN2C(=O)OCCn2nccn2)cc1 (stereo not shown) [Compound 1156] | 8 to 40
52 | CC(C)(C)OC(=O)N1CCc2c([nH]c3ccc(Cl)cc23)C1c1ccc(OCCCn2nccn2)cc1 (stereo not shown) [Compound 1186] | < 8
53 | NC(=O)COc1ccc(C2c3[nH]c4ccc(Cl)cc4c3CCN2C(=O)OCCF)cc1 (stereo not shown) [Compound 1211] | 8 to 40
54 | O=C(c1ccccc1)N1CCc2c([nH]c3ccc(Cl)cc23)C1c1ccc(OCCCN2CCOCC2)cc1 (stereo not shown) [Compound 1140] | 40 to 200
55 | O=C(COc1ccc(C2c3[nH]c4ccc(Cl)cc4c3CCN2C(=O)Oc2ccc(F)cc2)cc1)NCCN1CCOCC1 (stereo not shown) [Compound 1022] | 40 to 200
56 | CN1CCN(CCCOc2ccc(C3c4[nH]c5ccc(Cl)cc5c4CCN3C(=O)Oc3ccccc3)cc2)CC1 (stereo not shown) [Compound 1076] | 40 to 200
57 | O=C1CN(CCCOc2ccc(C3c4[nH]c5ccc(Cl)cc5c4CCN3C(=O)Oc3ccc(Cl)cc3)cc2)C(=O)N1 (stereo not shown) [Compound 1672] | < 8
58 | O=C(c1ccccc1)N1CCc2c([nH]c3ccc(Cl)cc23)C1c1ccc(OCCCn2cncn2)cc1 (stereo not shown) [Compound 1139] | 8 to 40
59 | COc1ccc(C2c3[nH]c4ccc(Cl)cc4c3CCN2C(N)=S)cc1 (stereo not shown) [Compound 1247] | 200 to 1000
60 | CC#CCOC(=O)N1CCc2c([nH]c3ccc(Cl)cc23)C1c1ccc(OCC[C@H](O)CO)cc1 (stereo partly shown) [Compound 1176] | < 8
61 | Oc1ccc([C@H]2c3[nH]c4ccc(Cl)cc4c3CCN2c2ncccn2)cc1 [Compound 1241] | 8 to 40
62 | COc1ccc(C2c3[nH]c4ccc(Cl)cc4c3CCN2C(=O)C(=O)Oc2ccc(C)cc2)cc1 (stereo not shown) [Compound 1721] | > 1000
63 | CCOC(=O)N1CCc2c([nH]c3ccc(Cl)cc23)C1c1ccc(OCC[C@H](O)CO)cc1 (stereo partly shown) [Compound 1173] | < 8
64 | COc1ccc(C2c3[nH]c4cccc(Br)c4c3CCN2C(=O)OCCF)cc1 (stereo not shown) [Compound 1522] | 200 to 1000
65 | O=C(OCCCCl)N1CCc2c([nH]c3ccc(Cl)cc23)C1c1ccc(OCC2OCCO2)cc1 (stereo not shown) [Compound 1041] | 8 to 40
66 | COc1ccc(OC(=O)N2CCc3c([nH]c4ccc(C#N)cc34)C2c2ccc(OC)cc2)cc1 (stereo not shown) [Compound 1516] | 200 to 1000
67 | CC(C)(C)OC(=O)N1CCc2c([nH]c3ccc(Cl)cc23)C1c1ccc(OCCCn2ccnn2)cc1 (stereo not shown) [Compound 1185] | < 8
68 | O=C(Oc1ccc(Cl)cc1)N1CCc2c([nH]c3ccc(Cl)cc23)[C@@H]1c1ccc(OCCC(O)CN(CCO)CCO)cc1 (stereo partly shown) [Compound 1280] | 8 to 40
69 | O=C(OCC1CCC1)N1CCc2c([nH]c3ccc(Cl)cc23)[C@@H]1c1ccc(OC[C@H](O)CO)cc1 [Compound 1379] | < 8
70 | CCOC(=O)N1CCc2c([nH]c3ccc(Cl)cc23)C1c1ccc(OCCNc2nccnn2)cc1 (stereo not shown) [Compound 1398] | 40 to 200
71 | C=CCOc1ccc([C@H]2c3[nH]c4ccc(Cl)cc4c3CCN2c2ncccn2)cc1 [Compound 1237] | < 8
72 | COc1ccc(C2c3[nH]c4ccc(Cl)cc4c3CCN2c2nc(O)cs2)cc1 (stereo not shown) [Compound 1586] | 40 to 200
73 | CCOC(=O)NC[C@@H](O)COc1ccc([C@H]2c3[nH]c4ccc(Cl)cc4c3CCN2C(=O)Oc2ccc(F)cc2)cc1 [Compound 1664] | < 8
